This is an account of results in PubChem BioAssay AID2060488 (Molecular Pharmacology Branch, DTP, NCI, 2025).

In general, viability, T/C refers to the result in the treated group divided by that in the control group, in per cent. What is called IC50 is the concentration that inhibits the measured activity by half.

The test concerns 966289-007-R4-J1-PDC complex spheroid viability. The experiment in a line: Anticancer human tumor 966289-007-R4-J1-PDC patient-derived pancreatic adenocarcinoma cell line growth inhibition [GQUAD]. To be noted: for viability, T/C: stronger effect = lower value. Summed up:
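Viability of tumor cells grown as complex spheroids with endothelial and stromal cells, exposed to drug combinations. Top concentration at or near clinical Cmax (else 10 microM), diluted in half-log increments.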

The structures appear in SMILES notation. “And” between values parts separate entries of the source, which are not always exact repeats. Identical values can stand only once. Where only a bound is given, the exact number is not on record here.
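Further: spheroids exposed to the agents for seven days before readout.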
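Wherever viability, T/C is given: percent viability relative to DMSO vehicle control wells taken as 100%.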

Turning to `CC1COCCN1c1cc(-c2ccnn2C)c2ccnc(-c3ccn[nH]3)c2n1` (stereo not given), the viability, T/C was 112% and 106% and 104% (compound 0.0316 µM); 75.1% and 95% and 82.1% (compound 0.1 µM); 15.9% and 32.8% and 16.8% (compound 0.316 µM); 6.65% and 12.3% and 6.94% (compound 1 µM); 4.32% and 6.18% and 4.41% (compound 3.16 µM); 3.06% and 4.67% and 3.7% (compound 10 µM). Moreover, for the setting “curve of compound”, the IC50 was 163 nM and 231 nM and 176 nM.
With `C=CC(=O)N1CCN(c2nc(=O)n(-c3c(C)ccnc3C(C)C)c3nc(-c4c(O)cccc4F)c(F)cc23)C(C)C1` (stereo not given), the viability, T/C (compound 0.0316 µM) is 102% (2×) and 99.4%; the viability, T/C (compound 0.1 µM) was 102% and 99.7% and 98.1%; the viability, T/C (compound 0.316 µM) is 104% and 94.3% and 95.7%; the viability, T/C (compound 1 µM) was 90% and 101% and 75.8%; the viability, T/C (compound 3.16 µM) was 97.5% and 106% and 100%; the viability, T/C (compound 10 µM) is 110% and 108% and 116%. Besides, under “curve of compound”, the IC50 is above 10000 nM.
With `CC(=O)O[C@H]1C(=O)[C@@]2(C)[C@H]([C@H](OC(=O)c3ccccc3)[C@]3(O)C[C@H](OC(=O)[C@H](O)[C@@H](NC(=O)c4ccccc4)c4ccccc4)C(C)=C1C3(C)C)[C@]1(OC(C)=O)CO[C@@H]1C[C@@H]2O`, the viability, T/C is 5.97% and 4.08% (compound 0.0316 µM); 3.17% and 2.51% (compound 0.1 µM); 4.33% and 3.04% (compound 0.316 µM); 6.75% and 5.13% (compound 1 µM); 9.64% and 6.14% (compound 3.16 µM); 14.1% and 8.4% (compound 10 µM). Moreover, the IC50 (curve of compound) was below 31.6 nM.
Regarding `Cc1[nH]c2ccc(F)cc2c1-c1nc2c3cccnc3c3ncccc3c2[nH]1`, the viability, T/C reads like this: (compound 0.0316 µM) 104% [middle of 11 runs]; (compound 0.1 µM) 108% [middle of 11 runs]; (compound 0.316 µM) 109% [middle of 11 runs]; (compound 1 µM) 109% [middle of 11 runs]; (compound 3.16 µM) 106% [middle of 11 runs]; (compound 10 µM) 98.2% [middle of 11 runs]. Moreover, the IC50 runs as follows: (compound alone, run of 03/18/2024) above 10000 nM; (compound alone, run of 03/26/2024) above 10000 nM.
As to `COc1cc(C2c3cc4c(cc3C(OC3OC5COC(C)OC5C(O)C3O)C3COC(=O)C23)OCO4)cc(OC)c1O` (stereo not given), the viability, T/C is 106% (2×) and 108% (compound 0.0316 µM); 108% and 111% and 110% (compound 0.1 µM); 41.2% and 40.8% and 50.3% (compound 0.316 µM); 5.14% and 5.7% and 8.75% (compound 1 µM); 1.52% and 0.98% and 2.8% (compound 3.16 µM); 0.83% and 0.61% and 0.86% (compound 10 µM). For the same molecule, the half-inhibitory concentration (IC50) (curve of compound) is 271 nM and 320 nM.
For the molecule `CC1COCCN1c1cc(C2(O)CC3CCC(C2)O3)c2cnn(-c3ccn[nH]3)c2n1` (stereo not given) + CN(C)c1ccc(Nc2c3ccc(NC(=O)CCN4CCCC4)cc3nc3cc(NC(=O)CCN4CCCC4)ccc23)cc1, the IC50 came out at 176 nM (curve of first compound, second compound 0.0316 µM); 177 nM (curve of first compound, second compound 0.1 µM); 176 nM (curve of first compound, second compound 0.316 µM); 167 nM (curve of first compound, second compound 1 µM); 147 nM (curve of first compound, second compound 3.16 µM); 74.1 nM (curve of first compound, second compound 10 µM). Further, the viability, T/C is 116% (second compound 0.0316 µM, first compound 0.0316 µM); 75.1% (second compound 0.0316 µM, first compound 0.1 µM); 24.1% (second compound 0.0316 µM, first compound 0.316 µM); 8.6% (second compound 0.0316 µM, first compound 1 µM); 5.79% (second compound 0.0316 µM, first compound 3.16 µM); 5.95% (second compound 0.0316 µM, first compound 10 µM). Moreover, the viability, T/C is 112% (second compound 0.1 µM, first compound 0.0316 µM); 81.4% (second compound 0.1 µM, first compound 0.1 µM); 18.1% (second compound 0.1 µM, first compound 0.316 µM); 8.59% (second compound 0.1 µM, first compound 1 µM); 5.93% (second compound 0.1 µM, first compound 3.16 µM); 5.58% (second compound 0.1 µM, first compound 10 µM). Further, the viability, T/C runs as follows: (second compound 0.316 µM, first compound 0.0316 µM) 109%; (second compound 0.316 µM, first compound 0.1 µM) 75.8%; (second compound 0.316 µM, first compound 0.316 µM) 23.1%; (second compound 0.316 µM, first compound 1 µM) 9%; (second compound 0.316 µM, first compound 3.16 µM) 5.73%; (second compound 0.316 µM, first compound 10 µM) 5.87%. Also, the viability, T/C is, setting by setting: (second compound 1 µM, first compound 0.0316 µM) 103%; (second compound 1 µM, first compound 0.1 µM) 74.3%; (second compound 1 µM, first compound 0.316 µM) 19.6%; (second compound 1 µM, first compound 1 µM) 8.84%; (second compound 1 µM, first compound 3.16 µM) 6.93%; (second compound 1 µM, first compound 10 µM) 4.89%. The viability, T/C was 104% (second compound 3.16 µM, first compound 0.0316 µM); 65.6% (second compound 3.16 µM, first compound 0.1 µM); 19.1% (second compound 3.16 µM, first compound 0.316 µM); 8.61% (second compound 3.16 µM, first compound 1 µM); 6.25% (second compound 3.16 µM, first compound 3.16 µM); 4.79% (second compound 3.16 µM, first compound 10 µM). Besides, the viability, T/C was 86.3% (second compound 10 µM, first compound 0.0316 µM); 37.3% (second compound 10 µM, first compound 0.1 µM); 12.7% (second compound 10 µM, first compound 0.316 µM); 6.7% (second compound 10 µM, first compound 1 µM); 6.68% (second compound 10 µM, first compound 3.16 µM); 3.1% (second compound 10 µM, first compound 10 µM).
As for `CC[C@@]1(O)C(=O)OCc2c1cc1n(c2=O)Cc2cc3c(CN(C)C)c(O)ccc3nc2-1`, the viability, T/C reads like this: (compound 0.000999 µM) 88.3% and 105% and 97.2%; (compound 0.00316 µM) 92.3% and 95.7% and 100%; (compound 0.00999 µM) 108% and 105% and 110%; (compound 0.0316 µM) 74.9% and 90.5% and 50.4%; (compound 0.0999 µM) 0.78% and 1.86% and 0.73%; (compound 0.316 µM) 0.62% and 0.47% and 0.41%. For the same molecule, under “curve of compound”, the IC50 is 46.5 nM and 53.5 nM and 31.9 nM.
